Source: US7037645B2, “Methods for identification of CDS8+ suppressor molecules” (priority 2000, dated 2006)
Like-named read-outs stand apart in the source and are kept apart here.

Tested on: CXCR4 dependent pseudotyped virus (NL4-3)
Test: Single cycle HIV infection assay, pseudotyped luciferase reporter virus, time of addition
Conditions: for inhibition of pseudotyped virus expression: all time points of addition, 0.2 μM; for activity at 0.2 µM: read-out: viral infection level, % of control levels

| Structure (SMILES) | inhibition of pseudotyped virus expression | inhibition of pseudotyped virus expression (listed as protease inhibitor) | activity at 0.2 µM (Human immunodeficiency virus 1, NL43, 10 h) | activity at 0.2 µM (Human immunodeficiency virus 1, NL43, 14 h) | time post virus exposure within which addition suppresses pseudotyped virus replication (time of addition, DP178 20 μg/ml, mAb#19 20 μg/ml, nevirapine 0.2 μM, Tat inhibitor 50 μM) |
| --- | --- | --- | --- | --- | --- |
| Cc1c(O)cccc1C(=O)N[C@@H](CSc1ccccc1)[C@H](O)CN1C[C@H]2CCCC[C@H]2C[C@H]1C(=O)NC(C)(C)C [nelfinavir] | ineffectual | does not, therefore, inhibit | – | – | – |
| Cc1ccnc2c1NC(=O)c1cccnc1N2C1CC1 [nevirapine] | – | – | 67% | 85% | approximately 10 hours |
